Source: ChEMBL document CHEMBL5726263, “Pyrazolopyrimidinyl inhibitors of ubiquitin-activating enzyme” (2017)

Biological target: Ubiquitin-conjugating enzyme E2 E1 (Homo sapiens, UniProt P51965)
Test: HTRF Assay : The UAE enzymatic reaction totals 50 μL and contains 50 mmol HEPES (pH 7.5), 0.05% BSA, 2.5 mM MgCl2, 0.1 uM ATP, 8 nM GST-Ubc-2, 35 nM flag-ubiquitin, 1 nM recombinant human UAE or mouse UAE. Compounds for this hUAE 1050 assay are tested at 10 point 3-fold dilution. The top concentration for this assay is 1 μM. Each compound is ordered in duplicate on the same plate.

Sequence of Ubiquitin-conjugating enzyme E2 E1 (P51965 whole entry): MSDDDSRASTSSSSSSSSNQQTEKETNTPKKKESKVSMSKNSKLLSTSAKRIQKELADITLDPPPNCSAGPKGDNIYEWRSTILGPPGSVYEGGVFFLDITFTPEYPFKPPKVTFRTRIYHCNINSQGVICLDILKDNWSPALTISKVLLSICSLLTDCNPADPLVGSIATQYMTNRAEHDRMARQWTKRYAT

NS(=O)(=O)OC[C@H]1C[C@@H](Nc2ccnc3cc(-c4cccc5ccccc45)nn23)[C@H](O)[C@@H]1O (racemic)
IC50: < 10 nM
